In ChEMBL document CHEMBL1201862, “PubChem BioAssay data set” (2004):
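Method: 48-hour compound exposure of cells in 96-well plates, five concentrations, linear interpolation of endpoints. GI50: concentration for 50% inhibition of growth.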 Calls of active or inactive are those of the source. Rule as the data show it: active = GI50 up to about 1.1 µM and inactive = higher.

Legend:
Experiment in all cases: NCI-60 cell line screen, 48 h
SK-OV-3 = system: SK-OV-3
HOP-62 = system: HOP-62
MOLT-4 = system: MOLT-4
CCRF-CEM = system: CCRF-CEM
UACC-257 = system: UACC-257
SF-268 = system: SF-268
RXF 393 = system: RXF 393
SK-MEL-5 = system: SK-MEL-5
TK-10 = system: TK-10
SNB-19 = system: SNB-19
NCI/ADR-RES = system: NCI/ADR-RES
SK-MEL-2 = system: SK-MEL-2
786-0 = system: 786-0
M14 = system: M14
K562 = system: K562
HT-29 = system: HT-29
CAKI-1 = system: CAKI-1
HL-60 = system: HL-60
SF-539 = system: SF-539
OVCAR-3 = system: OVCAR-3

Measured: GI50

Cc1cn(CC2=NCCCN2)c(=O)[nH]c1=O
inactive: SK-OV-3 > 100 µM | HOP-62 > 100 µM | MOLT-4 > 100 µM | CCRF-CEM > 100 µM | UACC-257 > 100 µM | SF-268 > 100 µM | RXF 393 > 100 µM | SK-MEL-5 > 100 µM | TK-10 > 100 µM | SNB-19 > 100 µM | NCI/ADR-RES > 100 µM | SK-MEL-2 > 100 µM | 786-0 > 100 µM | M14 > 100 µM | K562 > 100 µM | HT-29 > 100 µM

CC(C)(C)C1CCC2c3c([nH]c4ncccc34)C3C(=O)N(c4ccccc4)C(=O)C3C2C1 (stereo unspecified)
inactive: SK-OV-3 > 100 µM | HOP-62 > 100 µM | MOLT-4 > 100 µM | CCRF-CEM 49.7 µM | UACC-257 > 100 µM | SF-268 > 100 µM | RXF 393 > 100 µM | SK-MEL-5 > 100 µM | TK-10 > 100 µM | SNB-19 > 100 µM | CAKI-1 > 100 µM | SK-MEL-2 > 100 µM | HL-60 65.9 µM | 786-0 > 100 µM | M14 > 100 µM | K562 > 100 µM | HT-29 > 100 µM | SF-539 > 100 µM | OVCAR-3 > 100 µM

Nc1c(-c2nc3ccccc3s2)c2ccc([N+](=O)[O-])cc2c(=O)n1-c1cccc(C(=O)O)c1
inactive: CCRF-CEM 22.8 µM | UACC-257 20.9 µM | SF-268 35.5 µM | SK-MEL-5 26.7 µM | TK-10 19 µM | SNB-19 19.8 µM | NCI/ADR-RES 33.1 µM | CAKI-1 27.5 µM | SK-MEL-2 20.9 µM | HL-60 18.1 µM | 786-0 31.7 µM | HT-29 86.1 µM

c1ccc2c3nnc(c2c1)SCCCSc1nnc(c2ccccc12)SCCCS3
inactive: SK-OV-3 > 100 µM | HOP-62 24.2 µM | MOLT-4 > 100 µM | CCRF-CEM > 100 µM | UACC-257 > 100 µM | SF-268 18.9 µM | RXF 393 33.3 µM | SK-MEL-5 23 µM | TK-10 76.7 µM | SNB-19 28.8 µM | NCI/ADR-RES 33.4 µM | SK-MEL-2 40.1 µM | HL-60 > 100 µM | 786-0 54.1 µM | M14 90.8 µM | K562 > 100 µM | HT-29 > 100 µM | SF-539 11 µM | OVCAR-3 25.8 µM

CCOP(=O)(OCC)/C(C#N)=C/c1ccc(-c2cc(C(F)(F)F)cc(C(F)(F)F)c2)o1
inactive: HOP-62 14.5 µM | MOLT-4 3.71 µM | CCRF-CEM 9.75 µM | UACC-257 16.3 µM | SF-268 15.2 µM | TK-10 16.4 µM | SNB-19 16 µM | NCI/ADR-RES 9.82 µM | SK-MEL-2 20.3 µM | HL-60 3.4 µM | 786-0 12.2 µM | M14 10.2 µM | K562 3.3 µM | HT-29 6.55 µM | SF-539 14.9 µM | OVCAR-3 8.02 µM

Cc1cc2c(cc1O)CC[C@@H]1[C@@H]2CC[C@]2(C)[C@@H](O)CC[C@@H]12
inactive: SK-OV-3 11.5 µM | MOLT-4 3.68 µM | CCRF-CEM 4.32 µM | UACC-257 15.3 µM | SF-268 15.5 µM | SK-MEL-5 4.67 µM | TK-10 24 µM | SNB-19 12.6 µM | NCI/ADR-RES 5.77 µM | CAKI-1 16.9 µM | SK-MEL-2 5.48 µM | HL-60 1.73 µM | 786-0 14.6 µM | M14 7.24 µM | K562 2.58 µM | HT-29 17.1 µM

Cc1cc(NS(=O)(=O)c2ccc(NC(=O)c3cccc4c(Nc5ccc(S(=O)(=O)Nc6cc(C)on6)cc5)c5ccc(Cl)cc5nc34)cc2)no1
inactive: SK-OV-3 > 100 µM | HOP-62 61.5 µM | MOLT-4 56 µM | CCRF-CEM 41.9 µM | UACC-257 > 100 µM | SF-268 34.5 µM | RXF 393 29.2 µM | SK-MEL-5 56.4 µM | TK-10 > 100 µM | SNB-19 28.1 µM | CAKI-1 > 100 µM | SK-MEL-2 > 100 µM | HL-60 35 µM | 786-0 > 100 µM | M14 32.1 µM | K562 40.8 µM | HT-29 > 100 µM | SF-539 37.7 µM | OVCAR-3 68.5 µM

CCC(O)CCCCCCCCCCCCCCC(=O)O (stereo unspecified)
inactive: SK-OV-3 > 100 µM | HOP-62 > 100 µM | MOLT-4 44.3 µM | CCRF-CEM > 100 µM | UACC-257 > 100 µM | SF-268 > 100 µM | RXF 393 > 100 µM | SK-MEL-5 18.8 µM | TK-10 > 100 µM | SNB-19 > 100 µM | CAKI-1 > 100 µM | SK-MEL-2 > 100 µM | HL-60 24.8 µM | 786-0 84.9 µM | M14 > 100 µM | K562 > 100 µM | HT-29 40.8 µM | SF-539 > 100 µM | OVCAR-3 > 100 µM
